According to patent US8058243B2, “Method for treating a brain cancer with ifenprodil” (HSC Research and Development Limited Partnership, priority 2006, dated 2011):
Structures can show the parent of a compound that is named as a salt. Where two headings read alike, the source gives them in different places.

System: murine neural precursor cells (neurosphere cultures)
Test: HTS of LOPAC library against secondary neurosphere cultures, MTT proliferation assay at 3 μM, day 7 (z score, P value)
Format: cell-based, mouse
[1] = LOPAC primary screen, neurosphere MTT proliferation, 3 μM, day 7
[2] = yes/no: significantly inhibited neurosphere proliferation in primary screen
[3] = yes/no: significantly inhibited neurosphere proliferation (P<0.01) in primary screen
[4] = LOPAC library screen, 3 μM, MTT, neurosphere cultures
[5] = yes = significantly inhibited neurosphere proliferation (P<0.01) in the primary screen
[6] = primary LOPAC screen, 3 μM, MTT, neurosphere proliferation
[7] = yes/no: significantly inhibited neurosphere proliferation in the primary screen
[8] = yes/no: significantly inhibited neurosphere proliferation (P<0.01) in the primary screen
[9] = LOPAC library screen at 3 μM, MTT, secondary neurosphere cultures, screened in singlets
[10] = LOPAC library screen at 3 μM, secondary neurosphere cultures, MTT
[11] = LOPAC library screen, 3 μM, MTT, secondary neurosphere cultures, day 7
[12] = LOPAC screen, neurosphere MTT proliferation, 3 μM, day 7

C[N+](C)(C)CC#CCN1CCCC1=O [Oxotremorine methiodide]
Z Score: −0.7002 | Z score [1]: −0.700 | Activity [2]: no

O=C(O)CCCCC1CCSS1 (stereo not drawn) [(B1)-alpha-Lipoic Acid]
Z Score: 0.3418

CC(=O)[C@@]1(O)CC[C@H]2[C@@H]3CCC4=CC(=O)CC[C@]4(C)[C@H]3CC[C@@]21C [17alpha-hydroxyprogesterone]
Z Score: −0.5783 | Z score [1]: −0.578 | Activity [3]: no

CN1Cc2c(N)cccc2C(c2ccccc2)C1 (centres unmarked) [Nomifensine maleate]
Z Score [4]: 0.6693 | Z score [1]: 0.669 | Activity [5]: no

CCCN1CCOC2c3cc(O)ccc3OCC21.Cl (racemic) [(±)-PD 128,907 hydrochloride]
Z score [1]: 1.164 | Activity [2]: no

CCN(c1nc(N)c(C(=O)N=C(N)N)nc1Cl)C(C)C [5-(N-Ethyl-N-isopropyl)amiloride]
Z Score: −0.2886 | Z score [6]: −0.289 | Activity [7]: no

Nc1nc(Cl)nc2c1ncn2[C@@H]1O[C@H](CO)[C@@H](O)[C@H]1O [2-Chloroadenosine]
Z Score (168 h, 3 µM): −0.396 | Z score (168 h, 3 µM): −0.396 | Activity [3]: no

CN1CCc2cccc(Cl)c2CC1 [SKF 86466]
Z Score: 0.8822 | Z score [1]: 0.882 | Activity [5]: no

Cl.Cl.Cn1cnc(CCN)c1 [1-Methylhistamine dihydrochloride]
Z score [1]: 0.307 | Activity [5]: no

NCCCP(=O)(O)O [3-Aminopropylphosphonic acid]
Z Score: −2.331 | Z score [1]: −2.331 | Activity [8]: yes

CC(Cc1ccc(O)c(O)c1)C(C)Cc1ccc(O)c(O)c1 (centres unmarked)
Z Score [9]: 2.63 | Z score [1]: 2.630 | Activity [5]: no

C[C@]12CC[C@@H](O)C[C@@H]1CC[C@@H]1[C@@H]2CC[C@]2(C)C(=O)CC[C@@H]12 [Androsterone]
Activity: no | Z Score: 1.947 | Z score: 1.947

NCCCC(=O)O [GABA]
Z Score: −0.4389 | Z score [6]: −0.439 | Activity [7]: no

NC/C=C\C(=O)O [cis-4-Aminocrotonic acid]
Z Score [10]: −1.088 | Z score [6]: −1.088 | Activity [7]: no

Nc1ccn([C@H]2CC[C@@H](CO)O2)c(=O)n1 [2′,3′-dideoxycytidine]
Z Score [11]: −1.367 | Z score [1]: −1.367 | Activity [8]: no

CC(/C=C/c1cccc(Oc2ccc(F)cc2)c1)N(O)C(N)=O (centres unmarked) [BWB70C]
Z Score: −0.8932 | Z score [12]: −0.893 | Activity [3]: no

Metaproterenol hemisulfate
Z Score [10]: −1.022 | Z score [1]: −1.022 | Activity [5]: no

O=C(O)C=Cc1c[nH]cn1 [4-Imidazoleacrylic acid]
Z Score: −0.2635 | Z score [6]: −0.264 | Activity [7]: no

O=C(O)[C@@H]1CCN1 [L-azetidine-2-carboxylic acid]
Z Score: 0.9837 | Z score [1]: 0.984 | Activity [2]: no

CC(C)C1C2CCC(C2)C1N.Cl (centres unmarked) [AGN 192403 hydrochloride]
Z Score: 0.7032 | Z score [6]: 0.703 | Activity [7]: no

CCN(CC)C(=O)c1ccc(O)c(OC)c1 [Vanillic acid diethylamide]
Z Score [10]: −0.5948 | Z score [12]: −0.595 | Activity [3]: no

N.N.N.Nc1ncnc2c1ncn2C1OC(COP(=O)(O)OP(=O)(O)OP(=O)(O)OP(=O)(O)OC[C@H]2O[C@@H](n3cnc4c(N)ncnc43)C(O)C2O)[C@@H](O)C1O (stereo in doubt)
Z Score [10]: −0.2867 | Z score [12]: −0.287 | Activity [3]: no

Cc1ccc(N(CC2=NCCN2)c2cccc(O)c2)cc1 [Phentolamine mesylate]
Z Score (168 h, 3 µM): −0.3191 | Z score (168 h, 3 µM): −0.319 | Activity [2]: no

COc1ccc(CCCOC(Cn2ccnc2)c2ccc(OC)cc2)cc1 (centres unmarked) [SKF 96365]
Z Score: −4.497 | Z score [1]: −4.497 | Activity [5]: yes

COC(=O)c1c(C)[nH]c(C)c1C(=O)c1ccccc1Cc1ccccc1 [FPL 64176]
Z Score: −1.099 | Z score [1]: −1.099 | Activity [3]: no

COc1cc(C(O)C(=O)O)ccc1O (racemic) [(±)-Vanillylmandelic acid]
Z score (168 h, 3 µM): −1.811 | Activity [3]: no

Cc1cc(O)c2c(c1)C(=O)c1cc(O)cc(O)c1C2=O [Emodin]
Z Score (168 h, 3 µM): −0.4835 | Z score (168 h, 3 µM): −0.483 | Activity [3]: no

(−)-Naproxen sodium
Z Score [4]: 0.6024 | Z score [1]: 0.602 | Activity [5]: no

COc1ccc(C(=O)NCc2cccnc2)cc1C(=O)NCc1cccnc1 [Picotamide]
Z Score [9]: 1.736 | Z score [1]: 1.736 | Activity [2]: no

Cl.NCC(O)c1cc(O)c(O)cc1F (centres unmarked) [6-Fluoronorepinephrine hydrochloride]
Z Score: −1.168 | Z score [12]: −1.168 | Activity [3]: no

Nc1nc(N)c2nc(-c3ccccc3)c(N)nc2n1 [Triamterene]
Z Score [11]: −4.642 | Z score [1]: −4.642 | Activity [5]: yes

CC(N)(C(=O)O)c1ccc(C(=O)O)cc1 (racemic) [(±)-alpha-Methyl-4-carboxyphenylglycine]
Z score [1]: 0.727 | Activity [5]: no

N[C@H](C(=O)O)c1cc(O)cc(O)c1 [(S)-3,5-Dihydroxyphenyglycine]
Z score [12]: −0.336 | Activity [3]: no

CCCC1O[C@@H]2C[C@H]3[C@@H]4CCC5=CC(=O)C=C[C@]5(C)[C@H]4[C@@H](O)C[C@]3(C)[C@]2(C(=O)CO)O1 (some centres unmarked) [Budesonide]
Z Score [11]: −1.994 | Z score [12]: −1.994

COc1cc2c(cc1OC)-c1c/c(=N\c3c(C)cc(C)cc3C)n(C)c(=O)n1CC2 [Trequinsin hydrochloride]
Z Score [10]: −0.9709 | Z score [6]: −0.971 | Activity [7]: no

CN(C)c1nc(N(C)C)nc(N(C)C)n1 [Altretamine]
Z Score [11]: −1.322 | Z score [6]: −1.322 | Activity [7]: no

CC(=O)[C@H]1CC[C@H]2[C@@H]3CC=C4C[C@@H](OS(=O)(=O)[O-])CC[C@]4(C)[C@H]3CC[C@]12C.[Na+] [Pregnenolone sulfate sodium]
Z Score [9]: 2.653 | Z score [1]: 2.653 | Activity [2]: no

C[N+]1(C)CCN(c2ccccc2)CC1.[I-] [1,1-Dimethyl-4-phenyl-piperazinium iodide]
Z Score: −1.057 | Z score [12]: −1.057 | Activity [3]: no

O=C(N[C@@H](Cc1ccccc1)C(=O)CCl)OCc1ccccc1 [Z-L-Phe chloromethyl ketone]
Z Score: −2.901 | Z score [1]: −2.901 | Activity [8]: yes

Cl.N=C(N)NC(=O)Cc1c(Cl)cccc1Cl [Guranfacine hydrochloride]
Z score [1]: 0.927 | Activity [3]: no

Br.CO[C@H]1CC=C2CCN3CCC4=C(CC(=O)OC4)[C@]23C1 [Dihydro-beta-erythroidine hydrobromide]
Z Score: −1.788 | Z score [1]: −1.788 | Activity [3]: no

Br.CCCN(CCC)C1CCc2cccc(O)c2C1 (racemic) [(±)-8-Hydroxy-DPAT hydrobromide]
Z score [1]: 0.656 | Activity [8]: no

Phenylbenzene-omega-phosphono-alpha-amino acid
Z Score: −0.01423 | Z score [1]: −0.014 | Activity [2]: no

COc1ccc(C(=O)N2CCCC2=O)cc1 [Aniracetam]
Z Score [11]: −1.355 | Z score [6]: −1.355 | Activity [7]: no

N#C/C(=C\c1ccc(O)c(O)c1)C(=O)N1CCc2ccccc21 [Tyrphostin AG 528]
Z Score [10]: −0.1481 | Z score [6]: −0.148 | Activity [7]: no

Clc1ccc(Cn2c(CN3CCCC3)nc3ccccc32)cc1 [Clemizole hydrochloride]
Z Score [9]: 2.788 | Z score [12]: 2.788 | Activity [3]: no

CN(C)CCOC(c1ccccc1)c1ccccc1 [Diphenhydramine hydrochloride]
Z Score [4]: 0.8449 | Z score [1]: 0.845 | Activity [8]: no

[N-]=[N+]=Nc1ccc(C(=O)CSC[C@H](NC(=O)CC[C@H](N)C(=O)O)C(=O)NCC(=O)O)cc1 [S-(p-Azidophenacyl)glutathione]
Z Score [4]: −0.00276 | Z score [6]: −0.003 | Activity [7]: no

CCCCNC(=O)NS(=O)(=O)c1ccc(C)cc1 [Tolbutamide]
Activity: no | Z Score [10]: −0.3032 | Z score [6]: −0.303

CC(=O)[C@H]1CC[C@H]2[C@@H]3CC[C@H]4C[C@H](O)CC[C@]4(C)[C@H]3CC[C@]12C [5alpha-Pregnan-3alpha-ol-20-one]
Z Score: 0.9335 | Z score [1]: 0.934 | Activity [2]: no

CC(N)c1cccc(Cl)c1Cl.Cl (centres unmarked)
Z Score: −2.251

CCCCCCCCCCCCCC(=O)O[C@@H]1[C@@H](C)[C@@]2(O)[C@@H](C=C(CO)C[C@]3(O)C(=O)C(C)=C[C@@H]23)[C@@H]2C(C)(C)[C@]12OC(C)=O [Phorbol 12-myristate 13-acetate]
Z Score: −0.265 | Z score [1]: −0.265 | Activity [2]: no

CC(C)NC[C@@H](O)c1ccc(O)c(O)c1.O=C(O)C(O)C(O)C(=O)O [S(+)-Isoproterenol (+)-bitartrate]
Z Score: −0.2963

COc1ccc(CCN(C)CCCC(C#N)(c2ccc(OC)c(OC)c2)C(C)C)cc1OC.Cl (centres unmarked) [(B1)-Verapamil hydrochloride]
Z Score: 1.008

Cc1ccccc1N1CCN(S(=O)(=O)CC23CCC(CC2NC(=O)C(N)CCS(C)(=O)=O)C3(C)C)CC1 [L-368,899]
Z Score: 0.2909 | Z score [1]: 0.291 | Activity [3]: no
